System: N8-acetylspermidine deacetylase (Rattus norvegicus)
Assay: Inhibition of [acetyl-3H]-N8-Acetylspermidine deacetylase; NI = No inhibition; call rule not given here

Ki app: Not Active
SMILES: COC(=O)NCCCCCCN

From ChEMBL document CHEMBL1124471, “Design and synthesis of inhibitors of N8-acetylspermidine deacetylase” (J Med Chem, 1989)
